Biological target: T1, HamAB (Escherichia coli, UniProt A0A426EXV0)
T1 construct: gene DU321_04165; native locus coexpressed in E. coli BL21-AI; only HamA tagged 10xHis-MBP-TEV, TEV-treated; 1:1 heterodimer; with Hachiman antiphage defense system nuclease HamA (DUF1837 domain-containing protein)
T1 sequence (A0A426EXV0 1-1174): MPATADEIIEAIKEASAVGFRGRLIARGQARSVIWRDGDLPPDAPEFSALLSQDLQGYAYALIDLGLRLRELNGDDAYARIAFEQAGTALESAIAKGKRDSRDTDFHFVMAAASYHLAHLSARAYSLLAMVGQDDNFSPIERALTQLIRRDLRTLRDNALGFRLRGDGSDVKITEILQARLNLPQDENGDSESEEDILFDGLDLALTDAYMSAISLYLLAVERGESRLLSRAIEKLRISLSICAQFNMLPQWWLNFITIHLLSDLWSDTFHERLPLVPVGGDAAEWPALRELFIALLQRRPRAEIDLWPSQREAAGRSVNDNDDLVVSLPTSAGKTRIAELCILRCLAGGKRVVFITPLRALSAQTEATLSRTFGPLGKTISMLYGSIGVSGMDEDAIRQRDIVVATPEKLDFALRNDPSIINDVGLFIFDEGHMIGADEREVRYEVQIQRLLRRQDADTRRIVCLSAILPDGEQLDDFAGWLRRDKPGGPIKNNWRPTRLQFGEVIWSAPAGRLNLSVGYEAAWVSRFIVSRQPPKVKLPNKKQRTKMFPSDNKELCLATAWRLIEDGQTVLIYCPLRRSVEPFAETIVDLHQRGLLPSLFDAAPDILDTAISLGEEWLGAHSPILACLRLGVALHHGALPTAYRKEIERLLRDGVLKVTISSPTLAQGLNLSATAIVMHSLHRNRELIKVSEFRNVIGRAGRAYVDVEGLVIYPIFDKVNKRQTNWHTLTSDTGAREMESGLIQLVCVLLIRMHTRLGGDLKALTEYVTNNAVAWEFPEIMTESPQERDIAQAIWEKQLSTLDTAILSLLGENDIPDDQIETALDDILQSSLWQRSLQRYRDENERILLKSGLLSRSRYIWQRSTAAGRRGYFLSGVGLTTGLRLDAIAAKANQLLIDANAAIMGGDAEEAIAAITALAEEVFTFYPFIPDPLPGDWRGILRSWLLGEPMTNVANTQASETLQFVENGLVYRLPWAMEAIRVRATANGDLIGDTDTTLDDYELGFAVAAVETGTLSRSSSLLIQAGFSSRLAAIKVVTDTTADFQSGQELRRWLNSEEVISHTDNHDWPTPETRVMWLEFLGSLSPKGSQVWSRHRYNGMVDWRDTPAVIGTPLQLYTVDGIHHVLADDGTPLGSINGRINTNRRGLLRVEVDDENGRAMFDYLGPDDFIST
T1 sequence (Q6XGE5 1-259 partner): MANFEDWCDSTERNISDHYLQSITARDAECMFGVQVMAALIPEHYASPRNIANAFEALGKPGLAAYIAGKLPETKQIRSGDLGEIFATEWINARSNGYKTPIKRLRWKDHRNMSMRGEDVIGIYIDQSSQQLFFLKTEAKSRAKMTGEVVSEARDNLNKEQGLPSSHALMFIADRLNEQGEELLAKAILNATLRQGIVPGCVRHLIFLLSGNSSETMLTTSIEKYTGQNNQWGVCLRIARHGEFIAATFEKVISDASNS
Assay: malachite green phosphate release ATPase assay
Format: biochemical
Details: with or without supercoiled plasmid DNA; 1 mM ATP, 2 mM MgSO4, pH 8.8, 37 °C

Compound: Nc1ncnc2c1ncn2[C@@H]1O[C@H](COP(=O)(O)OP(=O)(O)OP(=O)(O)O)[C@@H](O)[C@H]1O [ATP]
- malachite green phosphate release ATPase assay: ATPase assays with HamB, HamAB, and HamA*B in the presence of plasmid DNA

— PMC12278908, “Genome integrity sensing by the broad-spectrum Hachiman antiphage defense complex” (Cell, 2024)
